What was measured:
Assay type in all cases: cell-based
[1] = tested on: NHL cell lines (Namalwa, Rec-1, Jeko-1, Granta-519, JVM-2, DB); assay: NHL cell proliferation by 3H-thymidine incorporation assay
Description: As detailed below, the effect of the administration of a quinazolinone compound on several types of NHL cells was determined after 3 days using 3H-thymidine incorporation, microbead array technology and real time PCR.
To better understand how the effectiveness of quinazolinone compound administration varies among different cancer cell types, the quinazolinone compound 3-(2,5-dimethyl-4-oxo-4H-quinazolin-3-yl)-piperidine-2,6-dione was tested in vitro for its anti-proliferative effect in several NHL cell lines after 3 days of treatment.
(§1) NHL cell proliferation was assessed by 3H-thymidine incorporation assay. Briefly, cells were cultured in 96 well cell culture plates in complete RPMI-1640 medium in the presence and absence of drugs. Following incubation at 37° C. for 3 days, 1μCi 3H-thymidine was added to each well for the last 5 hours of incubation. The 3H incorporation of each well was then measured. The six tested cell lines were Namalwa, Rec-1, Jeko-1, Granta-519, JVM-2, and DB.

[2] = tested on: SPARC mRNA; assay: SPARC mRNA level in NHL cells by real-time RT-PCR; conditions: sensitive NHL cells; 24 hours of incubation; 10 μM; FIG. 2
Description: The effect of the administration of 3-(2,5-dimethyl-4-oxo-4H-quinazolin-3-yl)-piperidine-2,6-dione in various NHL cells was measured after 24 hours of incubation, using real-time RT-PCR (FIG. 2).
The following exemplary procedures can be used. Upon purification of total RNA, real-time PCR is performed with 100 ng of total RNA, using an Applied Biosystems 7500 instrument (Applied Biosystems, Foster City, Calif.) using TaqMan Sequence Detection chemistry which uses a fluorogenic probe (FAM) to enable the detection of a specific PCR product as it accumulates during PCR. Samples are prepared in triplicate in 50 μl reaction volumes. […]
TaqMan® Gene Expression Assays are pre-formulated gene expression assays for rapid, reliable detection and quantification of human, mouse and rat mRNA transcripts. […] Data is analyzed using 7500 Real-Time PCR System Sequence Detection software v1.3 using the comparative CT relative quantification calculation method. The output is expressed as a fold-change of expression levels. The threshold level is selected to be automatically determined by the software and is set to be above the baseline but sufficiently low to be within the exponential growth region of an amplification curve. The cycle number at which the fluorescence signal associated with a particular amplicon accumulation crosses the threshold is referred to as the CT.

[3] = tested on: DB cell line; assay: NHL cell proliferation by 3H-thymidine incorporation assay, DB cell line; conditions: DB cells with t(14;18)
Description: as §1
Thus t(14;18) may be a negative prognostic factor in predicting clinical response to 3-(2,5-dimethyl-4-oxo-4H-quinazolin-3-yl)-piperidine-2,6-dione. Thus, SPARC gene expression can be used as a biomarker of NHL or MCL tumor response to quinazolinone compounds such as 3-(2,5-dimethyl-4-oxo-4H-quinazolin-3-yl)-piperidine-2,6-dione.

SMILES | order of sensitivity of the various NHL cell lines [1] | expression of SPARC mRNA [2] | response of DB cell line (rate of cell proliferation) [3] | anti-proliferative activity against NHL cells ([1]; 3 days of treatment, 0.01, 0.1, 1, 10 and 100 μM, FIG. 1) | dose dependence of the anti-proliferative effect ([1]; ranges tested 0, 0.01, 0.1, 1, 10 and 100 μM, especially in MCL cell lines)
Nc1cccc2c1CN(C1CCC(=O)NC1=O)C2=O (centres unmarked) [1-oxo-2-(2,6-dioxopiperidin-3-yl)-4-aminoisoindoline, reference compound] | Namalwa (Burkitt's lymphoma)>Jeko-1>Rec-1>JVM-2>Granta-519 (all Mantle Cell Lymphomas, MCL)>DB |  |  |  | 
Cc1cccc2nc(C)n(C3CCC(=O)NC3=O)c(=O)c12 (centres unmarked) [3-(2,5-dimethyl-4-oxo-4H-quinazolin-3-yl)-piperidine-2,6-dione] |  | increased the expression of SPARC mRNA | increased rate of cell proliferation | demonstrated anti-proliferative activity | dose dependent

Reference: patent publication US20110111396A1, “BIOMARKERS FOR MONITORING THE TREATMENT BY QUINAZOLINONE COMPOUNDS” (priority 2007, published 2011)
